Converted amounts (≈) assume the structure as drawn.
Columns and labels:
in vitro [1] = settings: SD, HW or BN, rat, plasma
in vitro [2] = settings: human
physchem [3] = settings: octan-1-ol/water
in vitro [4] = settings: human, plasma
physchem [5] = settings: pH 7.4 buffer

SMILES | microsomal CLint (in vitro [2]; liver microsomes) | logD (physchem [3]; pH 7.4, LogD7.4) | fraction unbound at 5 h (in vitro [4]; PPB) | also measured
C[S+]([O-])Cc1ccc(C(=O)Nc2cccnc2C(=O)NCC2CCOCC2)c2ccccc12 (stereo not given) |  |  |  | fraction unbound at 5 h (in vitro [1]): 0.154
N#CC1=C2C(=NC1=O)c1cccc3c(N4CCSCC4)ccc2c13 | 115 µL/min/mg | 3.22 | 0.0139 | 
CCc1ccc(OCC(=O)O)c(-c2ccc(S(C)(=O)=O)cc2)c1 |  |  | 0.0568 | microsomal CLint (in vitro [2]; microsomes): < 3 µL/min/mg
Cc1ccc2c(c1)c(Sc1cccc(Cl)c1)c(C)n2CC(=O)O | 12 µL/min/mg |  | 0.0036 | 
CN(C)CCn1cc(-c2cc(C(=O)NC[C@H]3CC[C@H](CNC(=O)OC(C)(C)C)CC3)c3ccccc3n2)cn1 |  |  |  | fraction unbound at 5 h (in vitro [1]): 0.0647
CC(=O)N1CCN(c2nc(NCC(C)c3ccc(Cl)cc3)c3c(n2)C(=O)N(C(C)C)C3)CC1 (stereo not given) |  |  |  | fraction unbound at 5 h (in vitro [1]): 0.142
O=c1[nH]c2ccccc2n1C1CCN(CCCC(c2ccc(F)cc2)c2ccc(F)cc2)CC1 [PIMOZIDE] |  |  |  | fraction unbound at 5 h (in vitro [1]): 0.003
COc1cc(F)c(C(C)C)cc1-c1ccc(C(F)(F)F)cc1CN1C(=O)O[C@H](c2cc(C(F)(F)F)cc(C(F)(F)F)c2)[C@@H]1C [ANACETRAPIB] |  |  |  | fraction unbound at 5 h (in vitro [1]): 0.0328
COc1ccc(OC)c(CNC(=O)c2cccnc2Oc2ccccc2)c1 | 43.5 µL/min/mg | 3.52 | 0.002 | 
N#Cc1ccc(F)c(-c2cc(C(F)(F)F)ccc2OCC(=O)O)c1 |  | -0.16 | 0.0293 | microsomal CLint (in vitro [2]; microsomes): < 3 µL/min/mg
Cc1cc([C@H](O)[C@](C)(OCc2ccc(-c3ccccc3)cc2)C(=O)NO)no1 | 15.8 µL/min/mg | 2.88 | 0.0328 | 
CCOC(=O)Nc1cc2c(c(N)n1)N=C(c1ccccc1)CCN2 |  |  | 0.0544 | microsomal CLint (in vitro [2]; microsomes): 66.1 µL/min/mg
Cc1c(S(=O)(=O)c2ccc(Cl)cc2)c2cc(F)ccc2n1CC(=O)O | < 3 µL/min/mg | -0.16 | 0.0043 | 
CCCCCOc1ccc(C(=O)NC(C(=O)O)C(C)C)cc1 (stereo not given) | 5.5 µL/min/mg |  |  | fraction unbound at 5 h (in vitro [4]): 0.0171
CC(=O)Nc1cccc2c1c(S(=O)(=O)c1ccc(Cl)cc1)c(C)n2CC(=O)O | < 3 µL/min/mg |  | 0.0428 | 
OCC(CO)Nc1nc(SCc2cccc(F)c2F)nc2nc(NC3CC3)sc12 | 46 µL/min/mg | 3.11 | 0.051 | 
O=C(NC[C@@H](O)CN1CCC(Oc2ccc(Cl)c(Cl)c2)CC1)c1cc(=O)[nH]c2ccccc12 | < 3 µL/min/mg | 3.48 | 0.0183 | solubility thermodynamic (physchem [5]): 15.8 µM (≈ 7.75 µg/mL)
O=c1[nH]c(-c2ccc([N+](=O)[O-])cc2)nc2ccccc12 |  | 2.5 |  | microsomal CLint (in vitro [2]; microsomes): 53.7 µL/min/mg; solubility thermodynamic (physchem [5]): 1.9 µM (≈ 0.508 µg/mL)
CCN(C(=O)Cc1ccc(S(C)(=O)=O)cc1)C1CCN(CC[C@@H](c2cc(F)cc(F)c2)N2CCN(S(C)(=O)=O)CC2)CC1 |  | 1.25 |  | microsomal CLint (in vitro [2]; microsomes): 7.5 µL/min/mg; solubility thermodynamic (physchem [5]): 1260 µM (≈ 807 µg/mL)
C[C@H](CO)Nc1nc(SCc2ccco2)nc2nc(N)sc12 | 5 µL/min/mg |  | 0.117 | 
CCCCCCc1nc2c(N)nc3ccccc3c2n1Cc1ccccc1 | < 3 µL/min/mg |  | 0.0036 | 
O=C(NS(=O)(=O)c1ccccc1Cl)N1CCC(N2CCC(Oc3ccc(Cl)c(Cl)c3)CC2)CC1 | < 3 µL/min/mg |  | 0.0307 | 

SMILES | microsomal CLint (in vitro [2]; liver microsomes) | logD (physchem [3]; pH 7.4, LogD7.4) | fraction unbound at 5 h (in vitro [4]; PPB) | also measured
O=C(NC1CC1)c1cc(-c2cccs2)on1 | 38.9 µL/min/mg | 2.54 | 0.0768 | 
C[C@@H]1CN(Cc2ccc(F)cc2)CCN1C(=O)COc1ccc(Cl)cc1NC(N)=O [BX 471 FREE BASE] | 21 µL/min/mg |  |  | fraction unbound at 5 h (in vitro [4]): 0.0205
N=C(N)c1cc2c(-c3ccccc3)cccc2s1 | 5 µL/min/mg | 1.27 | 0.101 | 
O=C(O)CSCC(=O)Nc1nc(-c2ccccc2)cs1 | 17.8 µL/min/mg |  | 0.0097 | 
CS(=O)(=O)c1ccc(-c2nnc(/C=C/c3nnc(-c4ccc(C#N)cc4)o3)n2-c2ccccc2Cl)nc1 | < 3 µL/min/mg | 2.66 | 0.0633 | 
CCN(C(=O)NCc1ccc(S(C)(=O)=O)cc1)C1CCN(CCC(c2ccccc2)c2ccccc2)CC1 | < 3 µL/min/mg | 2.86 |  | solubility thermodynamic (physchem [5]): 282 µM (≈ 150 µg/mL)
CNCCC(Oc1ccccc1OC)c1ccccc1 (stereo not given) [NISOXETINE] | < 3 µL/min/mg | 0.22 | 0.483 | 
COc1cc2ncnc(Nc3ccc(OCc4ccccn4)c(C)c3)c2cc1OC | 15 µL/min/mg | 3.6 |  | solubility thermodynamic (physchem [5]): 0.9 µM (≈ 0.362 µg/mL)
N#CN=C(N)c1sc(Nc2ccccc2)nc1N | < 3 µL/min/mg | 2.91 | 0.103 | 
Cc1ccc(S(=O)(=O)N(C)C(=O)N2CCC(N3CCC(Oc4ccc(Cl)c(Cl)c4)CC3)CC2)cc1 | 10 µL/min/mg |  | 0.0171 | 
COc1ccccc1S(=O)(=O)NC(=O)N1CCC(N2CCC(Oc3ccc(Cl)c(Cl)c3)CC2)CC1 | < 3 µL/min/mg |  | 0.0409 | 
COc1ccc(-c2ccc3nc(N)sc3c2)cn1 | 7.76 µL/min/mg | 3.2 | 0.0383 | 
C[C@H](CO)Nc1nc(SCc2cccc(F)c2F)nc2nc(NC3CC3)sc12 | 66 µL/min/mg | 4.37 | 0.0122 | 
Cc1cc(Nc2cncc(N[C@@H](C)c3ccc(F)cn3)n2)[nH]n1 | 34.7 µL/min/mg |  | 0.22 | 
O=C(NO)c1ccc(NS(=O)(=O)c2ccccc2)cc1 | 12 µL/min/mg | 0.75 |  | solubility thermodynamic (physchem [5]): 316 µM (≈ 92.4 µg/mL)
CC(C)Cn1c(=O)n(C)c(=O)c2cn(Cc3cccc4ccccc34)cc21 |  | 4.41 |  | microsomal CLint (in vitro [2]; microsomes): 14 µL/min/mg; solubility thermodynamic (physchem [5]): 1 µM (≈ 0.361 µg/mL)
COc1cccc(C(=O)Nc2ccc(C)c(-n3cnc4ccc(N5CCN(C)CC5)cc4c3=O)c2)c1 | 16 µL/min/mg | 3.08 |  | solubility thermodynamic (physchem [5]): 219 µM (≈ 106 µg/mL)
c1ccc(-c2[nH]nc3ccccc23)cc1 |  | 3.79 | 0.0307 | microsomal CLint (in vitro [2]; microsomes): < 3 µL/min/mg
COc1ccccc1C(C#N)NC(=O)[C@@H]1CCCC[C@H]1C(=O)N1CCN(Cc2ccc(F)cc2)CC1 (stereo not given in full) | 127 µL/min/mg | 3.57 | 0.051 | 
NC(=O)Nc1cc(-c2ccccc2)sc1C(N)=O | 27 µL/min/mg | 2.43 |  | solubility thermodynamic (physchem [5]): 17 µM (≈ 4.44 µg/mL)
COc1ccnc(CCc2nc3c(C)ccnc3[nH]2)c1 |  | 2.1 | 0.197 | microsomal CLint (in vitro [2]; microsomes): < 3 µL/min/mg
COc1ccc2c(c1)c(-c1ccnc3cc(Cl)ccc13)c(C)n2CC(=O)O | 4 µL/min/mg | 1.16 | 0.0031 | 

SMILES | microsomal CLint (in vitro [2]; liver microsomes) | logD (physchem [3]; pH 7.4, LogD7.4) | fraction unbound at 5 h (in vitro [4]; PPB) | also measured
CC(C)NC(=O)c1ccc2c(Nc3ccc(Cl)cc3)nc(N3CCOCC3)nc2c1 | < 3 µL/min/mg | 2.78 | 0.0051 | 
O=C(NCc1ccccc1Cl)c1cccnc1Oc1ccccc1 | 36 µL/min/mg | 3.68 | 0.134 | 
Cc1ccc(F)c(Nc2ccnc(Nc3ccc(S(N)(=O)=O)cc3)n2)c1 | 18 µL/min/mg | 3.1 |  | solubility thermodynamic (physchem [5]): 4.4 µM (≈ 1.64 µg/mL)
COc1cc(NC(C)CCCN)c2ncccc2c1 (stereo not given) [PRIMAQUINE] | < 3 µL/min/mg |  | 0.403 | 
CCCSc1nc(N[C@@H]2C[C@H]2c2ccccc2)c2nnn([C@@H]3C[C@H](OCCO)[C@@H](O)[C@H]3O)c2n1 | < 3 µL/min/mg | 3.87 |  | solubility thermodynamic (physchem [5]): 1 µM (≈ 0.487 µg/mL)
CCS(=O)(=O)c1ccc(-c2cc(C(F)(F)F)ccc2O[C@@H](C)C(=O)O)c(C)c1 | < 3 µL/min/mg |  | 0.0418 | 
CC[C@H](CO)Nc1nc(SCc2ccccc2)nc2nc(N)sc12 | 8.71 µL/min/mg | 3.27 | 0.013 | 
Cc1ccc2c(c1)c(-c1ccnc3c(F)cccc13)c(C)n2CC(=O)O | < 3 µL/min/mg | 0.53 | 0.009 | 
Nc1ccc2nc(SCC(=O)NC3CCN(Cc4ccc(Cl)c(Cl)c4)CC3)sc2c1 | 59 µL/min/mg |  | 0.262 | 
Cc1ccc(NC(=O)c2cncs2)cc1-n1cnc2ccc(N3CCN(C)CC3)cc2c1=O |  | 2.11 |  | microsomal CLint (in vitro [2]; microsomes): < 3 µL/min/mg; solubility thermodynamic (physchem [5]): 537 µM (≈ 247 µg/mL)
COc1cccc(S(=O)(=O)c2c(C)n(CC(=O)O)c3ccc(C)cc23)c1 | 3 µL/min/mg | -0.42 | 0.0063 | 
CCN(C(=O)Cc1ccc(S(C)(=O)=O)cc1)C1CCN(CCC(c2ccccc2)c2ccc(NS(C)(=O)=O)cc2)CC1 (stereo not given) | < 3 µL/min/mg | 1.84 |  | solubility thermodynamic (physchem [5]): 174 µM (≈ 106 µg/mL)
CCc1nc2c(N)nc3ccccc3c2n1CC(C)C | < 3 µL/min/mg |  | 0.117 | 
COc1ccc(OC)c(CNc2[nH]nc3cccc(Oc4ccc(S(C)(=O)=O)cc4)c23)c1 | 103 µL/min/mg | 3.71 |  | solubility thermodynamic (physchem [5]): 2.2 µM (≈ 0.998 µg/mL)
Cc1cc(Nc2cncc(N[C@@H](C)c3ncc(F)cn3)n2)n[nH]1 | 15.8 µL/min/mg |  | 0.0854 | 
CC(C)Oc1cc(-n2cnc3ccc(N[C@@H](C)c4ccc(F)cn4)nc32)n[nH]1 |  |  | 0.0581 | microsomal CLint (in vitro [2]; microsomes): > 150 µL/min/mg
COc1ccccc1C(=O)Nc1ccc(C)c(-n2cnc3ccc(N4CCN(C)CC4)cc3c2=O)c1 | 7 µL/min/mg | 2.93 |  | solubility thermodynamic (physchem [5]): 75.9 µM (≈ 36.7 µg/mL)
Cc1noc(C)c1-c1ccc(CNS(=O)(=O)c2c(C)noc2C)cc1 |  |  | 0.0752 | microsomal CLint (in vitro [2]; microsomes): 60.3 µL/min/mg
CCN(C(=O)Cc1ccc(S(C)(=O)=O)cc1)C1CCN(CCC(c2ccccc2)c2ccc(NC(C)=O)cc2)CC1 (stereo not given) | < 3 µL/min/mg | 2.09 |  | solubility thermodynamic (physchem [5]): 692 µM (≈ 398 µg/mL)
O=c1ncn2nc(Sc3ccc(F)cc3F)ccc2c1-c1c(Cl)cccc1Cl [NEFLAMAPIMOD] | 3 µL/min/mg | 2.74 |  | solubility thermodynamic (physchem [5]): 18.6 µM (≈ 8.11 µg/mL)
Cc1ccc(NC(=O)c2ccccc2F)cc1-n1cnc2ccc(N3CCN(C)CC3)cc2c1=O |  | 2.75 |  | microsomal CLint (in vitro [2]; microsomes): 3 µL/min/mg; solubility thermodynamic (physchem [5]): 933 µM (≈ 440 µg/mL)
O=C(NCC12CC3CC(CC(C3)C1)C2)c1cc(N2CCNCC2)ccc1Cl |  |  |  | microsomal CLint (in vitro [2]; microsomes): 11 µL/min/mg; solubility thermodynamic (physchem [5]): 224 µM (≈ 86.9 µg/mL); logD (physchem [3]; pH 7.4): 1.77; fraction unbound at 5 h (in vitro [4]): 0.0268

— ChEMBL document CHEMBL3301361, “Experimental in vitro DMPK and physicochemical data on a set of publicly disclosed compounds”
